Laboratory results reported in US7662814B2, “4-aminothieno[2,3-d]pyrimidine-6-carbonitrile derivatives as PDE7 inhibitors” (Laboratorios Almirall, S.A., priority 2003, dated 2010).

Compound	melting point [°C]
Cc1c(C#N)sc2nc(-c3ccccc3)nc(N3CCCCC3)c12 [Example 4, 5-Methyl-2-phenyl-4-piperidin-1-ylthieno[2,3-d]pyrimidine-6-carbonitrile]	142 to 144
COc1ccc(-c2nc(N3CCCCC3)c3c(C)c(C#N)sc3n2)cc1 [Example 6, 2-(4-Methoxyphenyl)-5-methyl-4-piperidin-1-ylthieno[2,3-d]pyrimidine-6-carbonitrile]	202 to 204
COc1cc(Cc2nc(NCC(C)C)c3c(C)c(C#N)sc3n2)cc(OC)c1OC [Example 135, 4-(Isobutylamino)-5-methyl-2-(3,4,5-trimethoxybenzyl)thieno[2,3-d]pyrimidine-6-carbonitrile]	129 to 131
CCN(CC)c1nc(-c2ccc(OC)cc2)nc2sc(C#N)c(C)c12 [Example 10, 4-(Diethylamino)-2-(4-methoxyphenyl)-5-methylthieno[2,3-d]pyrimidine-6-carbonitrile]	154 to 156
COc1cc(Cc2nc(NC(C)(C)C)c3c(C)c(C#N)sc3n2)cc(OC)c1OC [Example 116, 4-(tert-Butylamino)-5-methyl-2-(3,4,5-trimethoxybenzyl)thieno[2,3-d]pyrimidine-6-carbonitrile]	146 to 148
COc1ccc(Cc2nc(NCCO)c3c(C)c(C#N)sc3n2)cc1OC [Example 104, 2-(3,4-Dimethoxybenzyl)-4-[(2-hydroxyethyl)amino]-5-methylthieno[2,3-d]pyrimidine-6-carbonitrile]	149 to 151
COc1cc(-c2nc(NC(C)C)c3c(C)c(C#N)sc3n2)cc(OC)c1OC [Example 70, 4-(Isopropylamino)-5-methyl-2-(3,4,5-trimethoxyphenyl)thieno[2,3-d]pyrimidine-6-carbonitrile]	191 to 193
COc1cc(-c2nc(N3CCNC(C)C3)c3c(C)c(C#N)sc3n2)cc(OC)c1OC (stereo not drawn) [Example 83, 5-Methyl-4-(3-methylpiperazin-1-yl)-2-(3,4,5-trimethoxyphenyl)thieno[2,3-d]pyrimidine-6-carbonitrile]	213 to 215
Cc1c(C#N)sc2nc(CCc3ccccc3)nc(NC3CCC3)c12 [Example 128, 4-(Cyclobutylamino)-5-methyl-2-(2-phenylethyl)thieno[2,3-d]pyrimidine-6-carbonitrile]	153 to 155
C=CCN(C)c1nc(-c2cc(OC)c(OC)c(OC)c2)nc2sc(C#N)c(C)c12 [Example 78, 4-[Allyl(methyl)amino]-5-methyl-2-(3,4,5-trimethoxyphenyl)thieno[2,3-d]pyrimidine-6-carbonitrile]	162 to 164
CCN1CCN(c2nc(-c3ccccc3)nc3sc(C#N)c(C)c23)CC1 [Example 1, 4-(4-Ethylpiperazin-1-yl)-5-methyl-2-phenylthieno[2,3-d]pyrimidine-6-carbonitrile]	178 to 179
COc1cc(-c2nc(NCC(C)C)c3c(C)c(C#N)sc3n2)cc(OC)c1OC [Example 72, 4-(Isobutylamino)-5-methyl-2-(3,4,5-trimethoxyphenyl)thieno[2,3-d]pyrimidine-6-carbonitrile]	182 to 184
COc1cc(-c2nc(N(C)CCO)c3c(C)c(C#N)sc3n2)cc(OC)c1OC [Example 52, 4-[(2-Hydroxy-ethyl)-methyl-amino]-5-methyl-2-(3,4,5-trimethoxy-phenyl)-thieno[2,3-d]pyrimidine-6-carbonitrile]	164 to 166
CCN(C)c1nc(-c2ccc(C(=O)OC)cc2)nc2sc(C#N)c(C)c12 [Example 57]	125 to 128
CCN(CC)c1nc(-c2ccc3c(c2)OCO3)nc2sc(C#N)c(C)c12 [Example 36, 2-(1,3-Benzodioxol-5-yl)-4-(diethylamino)-5-methylthieno[2,3-d]pyrimidine-6-carbonitrile]	199 to 201
COc1cc(-c2nc(NC3CCCC3)c3c(C)c(C#N)sc3n2)cc(OC)c1OC [Example 77, 4-(Cyclopentylamino)-5-methyl-2-(3,4,5-trimethoxyphenyl)thieno[2,3-d]pyrimidine-6-carbonitrile]	218 to 220
COc1ccc(-c2nc(N(C)CCO)c3c(C)c(C#N)sc3n2)cc1 [Example 25, 4-[(2-Hydroxyethyl)(methyl)amino]-2-(4-methoxyphenyl)-5-methylthieno[2,3-d]pyrimidine-6-carbonitrile]	144 to 146
Cc1c(C#N)sc2nc(-c3ccncc3)nc(N(C)CCO)c12 [Example 42, 4-[(2-Hydroxyethyl)(methyl)amino]-5-methyl-2-pyridin-4-ylthieno[2,3-d]pyrimidine-6-carbonitrile]	194 to 195
CCNc1nc(-c2cc(OC)cc(OC)c2)nc2sc(C#N)c(C)c12 [Example 134]	207 to 208
COc1cc(-c2nc(NC(C)(C)C)c3c(C)c(C#N)sc3n2)cc(OC)c1OC [Example 74, 4-(tert-Butylamino)-5-methyl-2-(3,4,5-trimethoxyphenyl)thieno[2,3-d]pyrimidine-6-carbonitrile]	195 to 197

Compound	melting point [°C]
CCCCN(CCCC)c1nc(-c2ccc(OC)cc2)nc2sc(C#N)c(C)c12 [Example 14, 4-(Dibutylamino)-2-(4-methoxyphenyl)-5-methylthieno[2,3-d]pyrimidine-6-carbonitrile]	96 to 98
CCN(CC)c1nc(Cc2ccc(OC)c(OC)c2)nc2sc(C#N)c(C)c12 [Example 101, 4-(Diethylamino)-2-(3,4-dimethoxybenzyl)-5-methylthieno[2,3-d]pyrimidine-6-carbonitrile]	107 to 109
Cc1c(C#N)sc2nc(-c3ccc(Cl)cc3)nc(N3CCOCC3)c12 [Example 23, 2-(4-Chlorophenyl)-5-methyl-4-morpholin-4-ylthieno[2,3-d]pyrimidine-6-carbonitrile]	205 to 207
CCN1CCN(c2nc(-c3ccc(OC)cc3)nc3sc(C#N)c(C)c23)CC1 [Example 2, 4-(4-Ethylpiperazin-1-yl)-2-(4-methoxyphenyl)-5-methylthieno[2,3-d]pyrimidine-6-carbonitrile]	173 to 175
CCNc1nc(Cc2ccc(OC)c(OC)c2)nc2sc(C#N)c(C)c12 [Example 95, 2-(3,4-Dimethoxybenzyl)-4-(ethylamino)-5-methylthieno[2,3-d]pyrimidine-6-carbonitrile]	125 to 126
COc1cc(-c2nc(N3CCN(C(C)=O)CC3)c3c(C)c(C#N)sc3n2)cc(OC)c1OC [Example 85, 4-(4-Acetylpiperazin-1-yl)-5-methyl-2-(3,4,5-trimethoxyphenyl)thieno[2,3-d]pyrimidine-6-carbonitrile]	211 to 213
COCCNc1nc(Cc2ccc(OC)c(OC)c2)nc2sc(C#N)c(C)c12 [Example 106, 2-(3,4-Dimethoxybenzyl)-4-[(2-methoxyethyl)amino]-5-methylthieno[2,3-d]pyrimidine-6-carbonitrile]	94 to 97
CCN(C)c1nc(-c2cc(OC)cc(OC)c2)nc2sc(C#N)c(C)c12 [Example 55, 2-(3,5-Dimethoxy-phenyl)-4-(ethyl-methyl-amino)-5-methyl-thieno[2,3-d]pyrimidine-6-carbonitrile]	145 to 148
Cc1c(C#N)sc2nc(-c3ccc4c(c3)OCO4)nc(N3CCOCC3)c12 [Example 37, 2-(1,3-Benzodioxol-5-yl)-5-methyl-4-morpholin-4-ylthieno[2,3-d]pyrimidine-6-carbonitrile]	197 to 198
Cc1c(C#N)sc2nc(-c3ccc(Cl)cc3)nc(N3CCN(C)CC3)c12 [Example 15, 2-(4-Chlorophenyl)-5-methyl-4-(4-methylpiperazin-1-yl)thieno[2,3-d]pyrimidine-6-carbonitrile]	209 to 210
CCNc1nc(Cc2cc(OC)c(OC)c(OC)c2)nc2sc(C#N)c(C)c12 [Example 111, 4-(Ethylamino)-5-methyl-2-(3,4,5-trimethoxybenzyl)thieno[2,3-d]pyrimidine-6-carbonitrile]	164 to 165
COc1ccc(-c2nc(N3CCNCC3)c3c(C)c(C#N)sc3n2)cc1 [Example 12, 2-(4-Methoxyphenyl)-5-methyl-4-piperazin-1-ylthieno[2,3-d]pyrimidine-6-carbonitrile]	210 to 212
COc1cc(-c2nc(N(C)CCN(C)C)c3c(C)c(C#N)sc3n2)cc(OC)c1OC [Example 107, 4-[[2-(Dimethylamino)ethyl](methyl)amino]-5-methyl-2-(3,4,5-trimethoxyphenyl) thieno[2,3-d]pyrimidine-6-carbonitrile]	125 to 127
Cc1c(C#N)sc2nc(-c3ccccc3)nc(N3CCNCC3)c12 [Example 8, 5-Methyl-2-phenyl-4-piperazin-1-ylthieno[2,3-d]pyrimidine-6-carbonitrile]	251 to 253
C#CCN(C)c1nc(-c2ccc(OC)cc2)nc2sc(C#N)c(C)c12 [Example 24, 2-(4-Methoxyphenyl)-5-methyl-4-[methyl(prop-2-ynyl)amino]thieno[2,3-d]pyrimidine-6-carbonitrile]	160 to 171
CCC(CC)Nc1nc(-c2cc(OC)c(OC)c(OC)c2)nc2sc(C#N)c(C)c12 [Example 73, 4-[(1-Ethylpropyl)amino]-5-methyl-2-(3,4,5-trimethoxyphenyl)thieno[2,3-d]pyrimidine-6-carbonitrile]	226 to 228
CCC(CC)Nc1nc(Cc2cc(OC)c(OC)c(OC)c2)nc2sc(C#N)c(C)c12 [Example 115, 4-[(1-Ethylpropyl)amino]-5-methyl-2-(3,4,5-trimethoxybenzyl)thieno[2,3-d]pyrimidine-6-carbonitrile]	127 to 129
Cc1c(C#N)sc2nc(-c3ccncc3)nc(N3CCOCC3)c12 [Example 41, 5-Methyl-4-morpholin-4-yl-2-pyridin-4-ylthieno[2,3-d]pyrimidine-6-carbonitrile]	> 250
CCC(C)Nc1nc(Cc2cc(OC)c(OC)c(OC)c2)nc2sc(C#N)c(C)c12 (stereo not drawn) [Example 114, 4-(sec-Butylamino)-5-methyl-2-(3,4,5-trimethoxybenzyl)thieno[2,3-d]pyrimidine-6-carbonitrile]	134 to 137
